Test results published in ChEMBL document CHEMBL3045446, “In vitro antimicrobial and antimycobacterial activity of some chalcones and their derivatives” (2013).
≈ marks a conversion by molar mass, not a printed value.

Assays:
Format in all cases: functional
Proteus vulgaris [1] = test: Antimicrobial activity against Proteus vulgaris MTCC 1771 assessed as diameter of growth inhibition zone after 24 hr
Aspergillus clavatus [2] = test: Antimicrobial activity against Aspergillus clavatus MTCC 1323 assessed as diameter of growth inhibition zone after 48 hr
Pseudomonas aeruginosa [3] = test: Antimicrobial activity against Pseudomonas aeruginosa MTCC 741 assessed as diameter of growth inhibition zone after 24 hr
Aspergillus clavatus [4] = test: Antimicrobial activity against Aspergillus clavatus MTCC 1323 assessed as growth inhibition after 48 hr by agar streak dilution method; details: MTCC 1323, 48 h
Candida albicans [5] = test: Antimicrobial activity against Candida albicans MTCC 183 assessed as growth inhibition after 48 hr by agar streak dilution method; details: MTCC 183, 48 h
Shigella flexneri [6] = test: Antimicrobial activity against Shigella flexneri MTCC1457 assessed as diameter of growth inhibition zone after 24 hr
Pseudomonas aeruginosa [7] = test: Antimicrobial activity against Pseudomonas aeruginosa MTCC 741 assessed as growth inhibition after 24 hr by agar streak dilution method; details: MTCC 741, 24 h
Aspergillus niger [8] = test: Antimicrobial activity against Aspergillus niger MTCC 282 assessed as diameter of growth inhibition zone after 48 hr
Klebsiella pneumoniae [9] = test: Antimicrobial activity against Klebsiella pneumoniae MTCC 109 assessed as growth inhibition after 24 hr by agar streak dilution method; details: MTCC 109, 24 h
Escherichia coli [10] = test: Antimicrobial activity against Escherichia coli MTCC 739 assessed as growth inhibition after 24 hr by agar streak dilution method; details: MTCC 739, 24 h
Salmonella typhi [11] = test: Antimicrobial activity against Salmonella enterica subsp. enterica serovar Typhi MTCC 733 assessed as growth inhibition after 24 hr by agar streak dilution method; details: MTCC 733, 24 h
Candida albicans [12] = test: Antimicrobial activity against Candida albicans MTCC 183 assessed as diameter of growth inhibition zone after 48 hr
Klebsiella pneumoniae [13] = test: Antimicrobial activity against Klebsiella pneumoniae MTCC 109 assessed as diameter of growth inhibition zone after 24 hr
Proteus vulgaris [14] = test: Antimicrobial activity against Proteus vulgaris MTCC 1771 assessed as growth inhibition after 24 hr by agar streak dilution method; details: MTCC 1771, 24 h
Bacillus cereus [15] = test: Antimicrobial activity against Bacillus cereus MTCC 430 assessed as growth inhibition after 24 hr by agar streak dilution method; details: MTCC 430, 24 h
Aspergillus fumigatus [16] = test: Antimicrobial activity against Aspergillus fumigatus MTCC 343 assessed as diameter of growth inhibition zone after 48 hr
Escherichia coli [17] = test: Antimicrobial activity against Escherichia coli MTCC 739 assessed as diameter of growth inhibition zone after 24 hr
Aspergillus fumigatus [18] = test: Antimicrobial activity against Aspergillus fumigatus MTCC 343 assessed as growth inhibition after 48 hr by agar streak dilution method; details: MTCC 343, 48 h
[19] = system: Mycobacterium tuberculosis; test: Antituberculosis activity against Mycobacterium tuberculosis H37Rv assessed as growth inhibition after 12 to 28 days by L-J MIC method; details: for MIC: Mycobacterium tuberculosis, H37Rv
Salmonella typhi [20] = test: Antimicrobial activity against Salmonella enterica subsp. enterica serovar Typhi MTCC 733 assessed as diameter of growth inhibition zone after 24 hr
Staphylococcus aureus [21] = test: Antimicrobial activity against Staphylococcus aureus MTCC 96 assessed as diameter of growth inhibition zone after 24 hr
Bacillus cereus [22] = test: Antimicrobial activity against Bacillus cereus MTCC 430 assessed as diameter of growth inhibition zone after 24 hr
Shigella flexneri [23] = test: Antimicrobial activity against Shigella flexneri MTCC1457 assessed as growth inhibition after 24 hr by agar streak dilution method; details: MTCC1457, 24 h
Aspergillus niger [24] = test: Antimicrobial activity against Aspergillus niger MTCC 282 assessed as growth inhibition after 48 hr by agar streak dilution method; details: MTCC 282, 48 h
Staphylococcus aureus [25] = test: Antimicrobial activity against Staphylococcus aureus MTCC 96 assessed as growth inhibition after 24 hr by agar streak dilution method; details: MTCC 96, 24 h

Compound	diameter of the inhibition zone (DIZ) (Proteus vulgaris [1])	diameter of the inhibition zone (DIZ) (Aspergillus clavatus [2])	diameter of the inhibition zone (DIZ) (Pseudomonas aeruginosa [3])	MIC (Aspergillus clavatus [4])	MIC (Candida albicans [5])	diameter of the inhibition zone (DIZ) (Shigella flexneri [6])	MIC (Pseudomonas aeruginosa [7])	diameter of the inhibition zone (DIZ) (Aspergillus niger [8])	MIC (Klebsiella pneumoniae [9])	MIC (Escherichia coli [10])	MIC (Salmonella typhi [11])	diameter of the inhibition zone (DIZ) (Candida albicans [12])	diameter of the inhibition zone (DIZ) (Klebsiella pneumoniae [13])	MIC (Proteus vulgaris [14])	MIC (Bacillus cereus [15])	diameter of the inhibition zone (DIZ) (Aspergillus fumigatus [16])	diameter of the inhibition zone (DIZ) (Escherichia coli [17])	MIC (Aspergillus fumigatus [18])	growth inhibition (GI) [19]	MIC [19]	also measured
COc1ccc(C2CC(c3ccc(Nc4cc(=O)oc5ccccc45)cc3)=NN2C(C)=O)cc1OC (stereo unspecified)	20 mm	20 mm	20 mm	50 µg/mL (≈ 103 µM)	25 µg/mL (≈ 51.7 µM)	23 mm	50 µg/mL (≈ 103 µM)	23 mm	25 µg/mL (≈ 51.7 µM)	25 µg/mL (≈ 51.7 µM)	25 µg/mL (≈ 51.7 µM)	22 mm	22 mm	50 µg/mL (≈ 103 µM)	50 µg/mL (≈ 103 µM)	19 mm	21 mm	50 µg/mL (≈ 103 µM)	98%	100 µg/mL (≈ 207 µM)	diameter of the inhibition zone (DIZ) (Salmonella typhi [20]): 21 mm; diameter of the inhibition zone (DIZ) (Staphylococcus aureus [21]): 20 mm; diameter of the inhibition zone (DIZ) (Bacillus cereus [22]): 18 mm; MIC (Shigella flexneri [23]): 12.5 µg/mL (≈ 25.9 µM); MIC (Aspergillus niger [24]): 25 µg/mL (≈ 51.7 µM); MIC (Staphylococcus aureus [25]): 25 µg/mL (≈ 51.7 µM)
Nc1nc(-c2ccc(Cl)cc2)cc(-c2ccc(Nc3cc(=O)oc4ccccc34)cc2)n1	23 mm	17 mm	16 mm	50 µg/mL (≈ 113 µM)	12.5 µg/mL (≈ 28.4 µM)	21 mm	100 µg/mL (≈ 227 µM)	17 mm	12.5 µg/mL (≈ 28.4 µM)	50 µg/mL (≈ 113 µM)	25 µg/mL (≈ 56.7 µM)	21 mm	22 mm	12.5 µg/mL (≈ 28.4 µM)	50 µg/mL (≈ 113 µM)	19 mm	18 mm	25 µg/mL (≈ 56.7 µM)	97%	200 µg/mL (≈ 454 µM)	diameter of the inhibition zone (DIZ) (Salmonella typhi [20]): 20 mm; diameter of the inhibition zone (DIZ) (Staphylococcus aureus [21]): 20 mm; diameter of the inhibition zone (DIZ) (Bacillus cereus [22]): 19 mm; MIC (Shigella flexneri [23]): 25 µg/mL (≈ 56.7 µM); MIC (Aspergillus niger [24]): 50 µg/mL (≈ 113 µM); MIC (Staphylococcus aureus [25]): 50 µg/mL (≈ 113 µM)
COc1ccc(/C=C/C(=O)c2ccc(Nc3cc(=O)oc4ccccc34)cc2)cc1	18 mm	18 mm	16 mm	50 µg/mL (≈ 126 µM)	100 µg/mL (≈ 252 µM)	15 mm	100 µg/mL (≈ 252 µM)	20 mm	100 µg/mL (≈ 252 µM)	50 µg/mL (≈ 126 µM)	100 µg/mL (≈ 252 µM)	16 mm	16 mm	50 µg/mL (≈ 126 µM)	100 µg/mL (≈ 252 µM)	16 mm	18 mm	100 µg/mL (≈ 252 µM)	96%	250 µg/mL (≈ 629 µM)	diameter of the inhibition zone (DIZ) (Salmonella typhi [20]): 14 mm; diameter of the inhibition zone (DIZ) (Staphylococcus aureus [21]): 15 mm; diameter of the inhibition zone (DIZ) (Bacillus cereus [22]): 13 mm; MIC (Shigella flexneri [23]): 100 µg/mL (≈ 252 µM); MIC (Aspergillus niger [24]): 50 µg/mL (≈ 126 µM); MIC (Staphylococcus aureus [25]): 100 µg/mL (≈ 252 µM)
N#Cc1c(-c2ccc(O)cc2O)cc(-c2ccc(Nc3cc(=O)oc4ccccc34)cc2)nc1N	23 mm	27 mm	27 mm	6.25 µg/mL (≈ 13.5 µM)	12.5 µg/mL (≈ 27 µM)	26 mm	6.25 µg/mL (≈ 13.5 µM)	22 mm	3.12 µg/mL (≈ 6.75 µM)	12.5 µg/mL (≈ 27 µM)	3.12 µg/mL (≈ 6.75 µM)	23 mm	30 mm	12.5 µg/mL (≈ 27 µM)	6.25 µg/mL (≈ 13.5 µM)	25 mm	24 mm	6.25 µg/mL (≈ 13.5 µM)	97%	100 µg/mL (≈ 216 µM)	diameter of the inhibition zone (DIZ) (Salmonella typhi [20]): 28 mm; diameter of the inhibition zone (DIZ) (Staphylococcus aureus [21]): 22 mm; diameter of the inhibition zone (DIZ) (Bacillus cereus [22]): 26 mm; MIC (Shigella flexneri [23]): 6.25 µg/mL (≈ 13.5 µM); MIC (Aspergillus niger [24]): 12.5 µg/mL (≈ 27 µM); MIC (Staphylococcus aureus [25]): 12.5 µg/mL (≈ 27 µM)
CC(=O)N1N=C(c2ccc(Nc3cc(=O)oc4ccccc34)cc2)CC1c1ccccc1O (stereo unspecified)	17 mm	20 mm	16 mm	50 µg/mL (≈ 114 µM)	100 µg/mL (≈ 228 µM)	18 mm	100 µg/mL (≈ 228 µM)	19 mm	50 µg/mL (≈ 114 µM)	100 µg/mL (≈ 228 µM)	100 µg/mL (≈ 228 µM)	16 mm	20 mm	100 µg/mL (≈ 228 µM)	100 µg/mL (≈ 228 µM)	18 mm	16 mm	25 µg/mL (≈ 56.9 µM)	98%	250 µg/mL (≈ 569 µM)	diameter of the inhibition zone (DIZ) (Salmonella typhi [20]): 16 mm; diameter of the inhibition zone (DIZ) (Staphylococcus aureus [21]): 17 mm; diameter of the inhibition zone (DIZ) (Bacillus cereus [22]): 16 mm; MIC (Shigella flexneri [23]): 50 µg/mL (≈ 114 µM); MIC (Aspergillus niger [24]): 50 µg/mL (≈ 114 µM); MIC (Staphylococcus aureus [25]): 100 µg/mL (≈ 228 µM)
N#Cc1c(-c2ccc([N+](=O)[O-])cc2)cc(-c2ccc(Nc3cc(=O)oc4ccccc34)cc2)nc1N	19 mm	22 mm	20 mm	25 µg/mL (≈ 52.6 µM)	12.5 µg/mL (≈ 26.3 µM)	20 mm	50 µg/mL (≈ 105 µM)	23 mm	25 µg/mL (≈ 52.6 µM)	25 µg/mL (≈ 52.6 µM)	12.5 µg/mL (≈ 26.3 µM)	23 mm	19 mm	50 µg/mL (≈ 105 µM)	25 µg/mL (≈ 52.6 µM)	20 mm	22 mm	25 µg/mL (≈ 52.6 µM)	96%	250 µg/mL (≈ 526 µM)	diameter of the inhibition zone (DIZ) (Salmonella typhi [20]): 23 mm; diameter of the inhibition zone (DIZ) (Staphylococcus aureus [21]): 17 mm; diameter of the inhibition zone (DIZ) (Bacillus cereus [22]): 22 mm; MIC (Shigella flexneri [23]): 50 µg/mL (≈ 105 µM); MIC (Aspergillus niger [24]): 25 µg/mL (≈ 52.6 µM); MIC (Staphylococcus aureus [25]): 50 µg/mL (≈ 105 µM)
